Drawing on article PMC6976638, “Screening of natural compounds that targets glutamate racemase of Mycobacterium tuberculosis reveals the anti-tubercular potential of flavonoids” (Scientific Reports, 2020), this text covers Ki and Km for 3 molecules.

The target in series [1] is Glutamate racemase (MTB-MurI) (Mycobacterium tuberculosis, UniProt P9WPW9). As to the kind of experiment: GDH-coupled racemization assay (A340), Lineweaver-Burk and Dixon plots; […]. The class given is biochemical.
The subject of another series is N[C@H](CCC(=O)O)C(=O)O. As to the kind of experiment: purified protein. To be noted: substrate binding site; Cys75 and Cys185 catalytic residues.

Chain of Glutamate racemase (MTB-MurI) (P9WPW9 whole entry, looked up): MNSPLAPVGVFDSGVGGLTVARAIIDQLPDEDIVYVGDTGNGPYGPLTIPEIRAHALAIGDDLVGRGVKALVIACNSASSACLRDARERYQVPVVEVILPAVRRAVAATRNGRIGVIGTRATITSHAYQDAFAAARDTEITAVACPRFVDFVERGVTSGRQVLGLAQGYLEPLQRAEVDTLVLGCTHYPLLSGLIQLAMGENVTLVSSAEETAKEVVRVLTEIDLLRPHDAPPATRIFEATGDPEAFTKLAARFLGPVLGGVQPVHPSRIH

What is called Ki is the dissociation constant of the complex between target and ligand, obtained from inhibition or displacement. Read a high Ki as a looser hold on the target. With `O=C1C[C@@H](c2ccc(O)cc2)Oc2cc(O)cc(O)c21` [naringenin], the affinity in series [1] corresponds to a Ki of 23.8 µM.
Molecule `O=c1c(O)c(-c2ccc(O)c(O)c2)oc2cc(O)cc(O)c12` [quercetin] came in with a Ki in series [1] of 20.8 µM.
Usually Km stands for the substrate concentration at which the rate is half of its maximum. With “Glutamate racemase (MTB-MurI) (Mycobacterium tuberculosis H37Rv)”, the Km in the series with N[C@H](CCC(=O)O)C(=O)O was 499 µM.
